From US9561228B2 (Celgene Avilomics Research, Inc., priority 2013, dated 2017)

How the values were obtained:
[1] = target: T1, Erk1 (Homo sapiens, UniProt P27361); assay: Protein Mass Modification Assay (intact protein MALDI, 60 min, 10-fold excess of compound); format: binding
T1 construct: purchased Millipore 14-439
Procedure, shortened: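 Human Erk1 was incubated 60 min at room temperature with a 10-fold molar excess of compound, then analysed as intact protein by MALDI with sinapinic acid matrix. The centroid mass shift versus untreated protein was divided by compound molecular weight to give percent modified protein.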

[2] = test system: ERK1/2 phosphorylation of p90RSK in A375 cells; assay: Detection of total and phosphor-RSK by MSD ELISA (A375); format: cell-based; conditions: Homo sapiens, A-375, read-out: ERK1/ERK2 PRSK A375 EC50
Procedure, shortened: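 A375 cells serum-starved overnight in DMEM/0.1% FBS, then treated 2 h at 37° C with compound (1000× DMSO dilutions into medium). Lysates captured on RSK antibody-coated MSD plates; phospho-RSK (Ser380) and total RSK detected with SulfoTag secondary antibodies by electrochemiluminescence.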

[3] = test system: ERK1/2 phosphorylation of p90RSK in HT29 cells; assay: pRSK MSD Assay in HT29 cells; format: cell-based; conditions: Homo sapiens, HT-29, read-out: ERK1/ERK2 PRSK MSD HT29 EC50
Procedure, shortened: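 Serum-starved HT29 cells (0.1% FBS overnight) treated with test compound for 120 min at 37° C, then lysed with protease and phosphatase inhibitors. Phospho-p90RSK quantified by MSD sandwich immunoassay: RSK capture antibody, phospho-RSK detection antibody plus Sulfo-tagged antibody, electrochemiluminescence read.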

T1 sequence (P27361 whole entry): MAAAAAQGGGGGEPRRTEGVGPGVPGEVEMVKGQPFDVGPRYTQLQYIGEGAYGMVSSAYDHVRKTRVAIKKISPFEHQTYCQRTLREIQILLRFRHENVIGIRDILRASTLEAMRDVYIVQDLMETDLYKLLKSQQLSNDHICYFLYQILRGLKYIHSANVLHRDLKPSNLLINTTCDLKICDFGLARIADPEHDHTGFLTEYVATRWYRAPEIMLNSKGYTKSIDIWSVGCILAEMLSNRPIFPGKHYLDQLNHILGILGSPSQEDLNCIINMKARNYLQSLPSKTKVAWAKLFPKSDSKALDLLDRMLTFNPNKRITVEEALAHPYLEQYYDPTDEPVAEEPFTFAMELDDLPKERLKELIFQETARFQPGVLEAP

EC50 [2] [nM] | EC50 [3] [nM] | SMILES | ERK1 Mass Mod (%) [1]
501 to 999 | 101 to 500 | C=CC(=O)Nc1cc(O[C@@H](C)C(=O)N2CCN(C(C)=O)CC2)ccc1Nc1nc(Nc2cc(OC)ncc2C)ncc1C(F)(F)F [Compound I-425, (S)—N-(5-((1-(4-acetylpiperazin-1-yl)-1-oxopropan-2-yl)oxy)-2-((2-((2-methoxy-5-methylpyridin-4-yl)amino)-5-(trifluoromethyl)pyrimidin-4-yl)amino)phenyl)acrylamide] | 
501 to 999 | 101 to 500 | C=CC(=O)Nc1cc(C)ccc1Nc1nc(Nc2cc(C(=O)NC)nn2C)ncc1C(F)(F)F [Compound I-424, 5-((4-((2-acrylamido-4-methylphenyl)amino)-5-(trifluoromethyl)pyrimidin-2-yl)amino)-N,1-dimethyl-1H-pyrazole-3-carboxamide] | 
101 to 500 | < 100 | C=CC(=O)Nc1cc(O[C@@H](C)C(=O)N2CCN(S(C)(=O)=O)CC2)ccc1Nc1nc(Nc2cc(OC)ncc2C)ncc1C(F)(F)F [Compound I-426, (S)—N-(2-((2-((2-methoxy-5-methylpyridin-4-yl)amino)-5-(trifluoromethyl)pyrimidin-4-yl)amino)-5-((1-(4-(methylsulfonyl)piperazin-1-yl)-1-oxopropan-2-yl)oxy)phenyl)acrylamide] | 
101 to 500 | 101 to 500 | C=CC(=O)Nc1cc(CCc2cnn(C)c2)ccc1Nc1nc(Nc2cc(OC)ncc2C)ncc1C(F)(F)F [Compound I-427, N-(2-((2-((2-methoxy-5-methylpyridin-4-yl)amino)-5-(trifluoromethyl)pyrimidin-4-yl)amino)-5-(2-(1-methyl-1H-pyrazol-4-yl)ethyl)phenyl)acrylamide] | 
101 to 500 | 101 to 500 | C=CC(=O)Nc1cc(CN2CCN(C(C)=O)C[C@H]2C)ccc1Nc1nc(Nc2cc(OC)ncc2C)ncc1C(F)(F)F [Compound I-422, (R)—N-(5-((4-acetyl-2-methylpiperazin-1-yl)methyl)-2-((2-((2-methoxy-5-methylpyridin-4-yl)amino)-5-(trifluoromethyl)pyrimidin-4-yl)amino)phenyl)acrylamide] | 
> 1000 | > 1000 | C=CC(=O)Nc1cc(C)ccc1Nc1nc(Nc2cc(C(N)=O)nn2C)ncc1C(F)(F)F [Compound I-423, 5-((4-((2-acrylamido-4-methylphenyl)amino)-5-(trifluoromethyl)pyrimidin-2-yl)amino)-1-methyl-1H-pyrazole-3-carboxamide] | 
101 to 500 | 101 to 500 | C=CC(=O)Nc1cc(CN2CCN(C(C)=O)C[C@@H]2C)ccc1Nc1nc(Nc2cc(OC)ncc2C)ncc1C(F)(F)F [Compound I-421, (S)—N-(5-((4-acetyl-2-methylpiperazin-1-yl)methyl)-2-((2-((2-methoxy-5-methylpyridin-4-yl)amino)-5-(trifluoromethyl)pyrimidin-4-yl)amino)phenyl)acrylamide] | 

The next lines start with the molecule.

SMILES | EC50 [2] [nM] | EC50 [3] [nM] | ERK1 Mass Mod (%) [1]
C=CC(=O)Nc1ccccc1Nc1nc(Nc2cc(OC)nc(N3CCN(C(C)=O)CC3)c2)ncc1C(F)(F)F [Compound I-92] | < 100 |  | E (a mass modification of ≧70%)
C=CC(=O)Nc1cc(O[C@H](C)C(=O)N2CCN(C(C)=O)CC2)ccc1Nc1nc(Nc2cc(OC)ncc2C)ncc1C(F)(F)F [Compound I-409, (R)—N-(5-((1-(4-acetylpiperazin-1-yl)-1-oxopropan-2-yl)oxy)-2-((2-((2-methoxy-5-methylpyridin-4-yl)amino)-5-(trifluoromethyl)pyrimidin-4-yl)amino)phenyl)acrylamide] | > 1000 | 501 to 999 | 
C=CC(=O)Nc1cc(C)ccc1Nc1nc(Nc2cc(C(=O)OC)nn2C)ncc1C(F)(F)F [Compound I-418, Methyl 5-((4-((2-acrylamido-4-methylphenyl)amino)-5-(trifluoromethyl)pyrimidin-2-yl)amino)-1-methyl-1H-pyrazole-3-carboxylate] | 501 to 999 | 501 to 999 | 
C=CC(=O)Nc1cc(O[C@H](C)C(N)=O)ccc1Nc1nc(Nc2cc(OC)ncc2C)ncc1C(F)(F)F [Compound I-413, (R)—N-(5-((1-amino-1-oxopropan-2-yl)oxy)-2-((2-((2-methoxy-5-methylpyridin-4-yl)amino)-5-(trifluoromethyl)pyrimidin-4-yl)amino)phenyl)acrylamide] | < 100 | < 100 | 
C=CC(=O)Nc1cc(OCC(=O)N2CCN(C(C)=O)CC2)ccc1Nc1nc(Nc2cc(OC)ncc2OC)ncc1C(F)(F)F [Compound I-415, N-(5-(2-(4-acetylpiperazin-1-yl)-2-oxoethoxy)-2-((2-((2,5-dimethoxypyridin-4-yl)amino)-5-(trifluoromethyl)pyrimidin-4-yl)amino)phenyl)acrylamide] | 501 to 999 | 501 to 999 | 
C=CC(=O)Nc1cc(C)ccc1Nc1nc(Nc2cc(C(C)=O)ccc2C)ncc1C(F)(F)F [Compound I-84, N-(2-((2-((5-Acetyl-2-methylphenyl)amino)-5-(trifluoromethyl)pyrimidin-4-yl)amino)-5-methylphenyl)acrylamide] |  | < 100 | E (key: E: a mass modification of ≧70%; F: a mass modification of 31-69%; G: a mass modification ≦30%)
C=CC(=O)Nc1cc(C)ccc1Nc1nc(NCC2COC2)ncc1C(F)(F)F [Compound I-417, N-(5-methyl-2-((2-((oxetan-3-ylmethyl)amino)-5-(trifluoromethyl)pyrimidin-4-yl)amino)phenyl)acrylamide] | > 1000 | > 1000 | 
C=CC(=O)Nc1c(Nc2nc(Nc3cc(OC)ncc3C)ncc2OC)cccc1OCc1nccs1 [Compound I-411, N-(2-((5-methoxy-2-((2-methoxy-5-methylpyridin-4-yl)amino)pyrimidin-4-yl)amino)-6-(thiazol-2-ylmethoxy)phenyl)acrylamide] | > 1000 | > 1000 | 
C=CC(=O)Nc1cc(OC(F)(F)F)ccc1Nc1nc(Nc2cc(OC)ncc2C)ncc1C(F)(F)F [Compound I-407, N-(2-((2-((2-methoxy-5-methylpyridin-4-yl)amino)-5-(trifluoromethyl)pyrimidin-4-yl)amino)-5-(trifluoromethoxy)phenyl)acrylamide] | 101 to 500 | < 100 | 
C=CC(=O)Nc1cc(O[C@H](C)C(=O)N2CCN(S(C)(=O)=O)CC2)ccc1Nc1nc(Nc2cc(OC)ncc2C)ncc1C(F)(F)F [Compound I-410, (R)—N-(2-((2-((2-methoxy-5-methylpyridin-4-yl)amino)-5-(trifluoromethyl)pyrimidin-4-yl)amino)-5-((1-(4-(methylsulfonyl)piperazin-1-yl)-1-oxopropan-2-yl)oxy)phenyl)acrylamide] | 101 to 500 | 101 to 500 | 
C=CC(=O)Nc1cc(C)ccc1Nc1nc(Nc2cc(OC)ncc2CC)ncc1C(F)(F)F [Compound I-408, N-(2-((2-((5-ethyl-2-methoxypyridin-4-yl)amino)-5-(trifluoromethyl)pyrimidin-4-yl)amino)-5-methylphenyl)acrylamide] | 101 to 500 | 101 to 500 | 
C=CC(=O)Nc1cc(CN2CCN(C(=O)c3ccccn3)CC2)ccc1Nc1nc(Nc2nc(OC)ncc2C)ncc1C(F)(F)F [Compound I-391, N-(2-((2-((2-methoxy-5-methylpyrimidin-4-yl)amino)-5-(trifluoromethyl)pyrimidin-4-yl)amino)-5-((4-picolinoylpiperazin-1-yl)methyl)phenyl)acrylamide] | > 1000 | 101 to 500 | 
C=CC(=O)Nc1cc(C)ccc1Nc1nc(Nc2cc(C(F)(F)F)nn2C)ncc1C(F)(F)F [Compound I-419, N-(5-methyl-2-((2-((1-methyl-3-(trifluoromethyl)-1H-pyrazol-5-yl)amino)-5-(trifluoromethyl)pyrimidin-4-yl)amino)phenyl)acrylamide] | > 1000 | > 1000 | 
C=CC(=O)Nc1cc(CN2CCN(C(=O)c3ccccn3)CC2)ccc1Nc1nc(Nc2cc(OC)ncc2C)ncc1C(F)(F)F [Compound I-388, N-(2-((2-((2-methoxy-5-methylpyridin-4-yl)amino)-5-(trifluoromethyl)pyrimidin-4-yl)amino)-5-((4-picolinoylpiperazin-1-yl)methyl)phenyl)acrylamide] | < 100 | < 100 | 
C=CC(=O)Nc1cc(C)ccc1Nc1nc(NC2COC2)ncc1C(F)(F)F [Compound I-420, N-(5-methyl-2-((2-(oxetan-3-ylamino)-5-(trifluoromethyl)pyrimidin-4-yl)amino)phenyl)acrylamide] | > 1000 | > 1000 | 
C=CC(=O)Nc1cc(O[C@@H](C)C(N)=O)ccc1Nc1nc(Nc2cc(OC)ncc2C)ncc1C(F)(F)F [Compound I-412, (S)—N-(5-((1-amino-1-oxopropan-2-yl)oxy)-2-((2-((2-methoxy-5-methylpyridin-4-yl)amino)-5-(trifluoromethyl)pyrimidin-4-yl)amino)phenyl)acrylamide] | < 100 | > 1000 | 
C=CC(=O)Nc1cc(OCCN2CCN(C(C)=O)CC2)ccc1Nc1nc(Nc2cc(OC)ncc2C)ncc1C(F)(F)F [Compound I-416, N-(5-(2-(4-acetylpiperazin-1-yl)ethoxy)-2-((2-((2-methoxy-5-methylpyridin-4-yl)amino)-5-(trifluoromethyl)pyrimidin-4-yl)amino)phenyl)acrylamide] | 101 to 500 | 101 to 500 | 
